The text below walks through data of paper PMC4580987, “Catalytic site inhibition of insulin-degrading enzyme by a small molecule induces glucose intolerance in mice” (Nature Communications, 2015).

The target of data set [1] is T1, hIDE (Homo sapiens, UniProt P14735).
T1 construct: made in house
T1 sequence (P14735 1-1019): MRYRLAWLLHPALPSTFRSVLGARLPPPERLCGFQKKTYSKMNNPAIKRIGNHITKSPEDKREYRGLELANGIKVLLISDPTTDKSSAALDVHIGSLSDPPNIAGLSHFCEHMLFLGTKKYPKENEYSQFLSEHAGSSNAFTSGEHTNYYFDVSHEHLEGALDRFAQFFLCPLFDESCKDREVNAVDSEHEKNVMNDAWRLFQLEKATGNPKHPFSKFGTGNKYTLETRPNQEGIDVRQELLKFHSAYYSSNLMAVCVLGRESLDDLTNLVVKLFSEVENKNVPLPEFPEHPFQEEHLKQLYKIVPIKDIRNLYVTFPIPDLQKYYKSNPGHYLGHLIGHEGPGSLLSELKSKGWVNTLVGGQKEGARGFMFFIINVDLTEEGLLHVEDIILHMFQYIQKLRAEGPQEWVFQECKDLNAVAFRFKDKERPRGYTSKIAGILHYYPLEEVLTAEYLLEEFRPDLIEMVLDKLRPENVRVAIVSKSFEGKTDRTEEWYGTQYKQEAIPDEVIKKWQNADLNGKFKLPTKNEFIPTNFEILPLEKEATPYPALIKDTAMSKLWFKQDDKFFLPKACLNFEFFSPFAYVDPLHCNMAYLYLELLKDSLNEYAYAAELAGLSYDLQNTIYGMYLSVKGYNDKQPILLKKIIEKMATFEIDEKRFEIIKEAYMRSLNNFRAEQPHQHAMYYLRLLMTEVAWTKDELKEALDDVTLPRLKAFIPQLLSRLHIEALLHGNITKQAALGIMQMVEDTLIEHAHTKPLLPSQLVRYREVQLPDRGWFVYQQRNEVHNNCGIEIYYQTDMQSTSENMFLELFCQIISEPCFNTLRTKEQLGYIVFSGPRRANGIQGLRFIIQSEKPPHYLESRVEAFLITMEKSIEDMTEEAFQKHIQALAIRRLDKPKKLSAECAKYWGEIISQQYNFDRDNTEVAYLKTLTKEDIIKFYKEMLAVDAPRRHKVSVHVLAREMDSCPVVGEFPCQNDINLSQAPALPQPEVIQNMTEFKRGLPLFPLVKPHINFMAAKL
The data set is described as follows: In vitro hIDE inhibition of insulin hydrolysis. The data set is classed as biochemical. As to conditions: substrate native insulin; means of two experiments minimum, s.d.±10%; read-out: Selectivity IC50 hIDE. How it is done:
The enzymatic activity of hIDE was assayed quantifying the amount of insulin (Actrapid) at the end of the reaction. The quantity of insulin was determined using a Luminex kit (HMHMAG-34K, Millipore). 20 μl of WT IDE in Hepes buffer (50 mM with 100 mM NaCl, pH 7.4) at 1 μg ml^−1 were pre-incubated 10 min at ambient temperature with 20 μl of test compound or vehicle in 96-well microtiter plates (dark, non-binding surface). The reaction was then started by the addition of 40 μl of insulin at 40 nM. The final concentration of hIDE and substrate was 0.25 μg ml^−1 and 20 nM, respectively. Incubations were performed at ambient temperature for 10 min. The reaction was then stopped by addition of 80 μl of 200 mM EDTA. The samples were diluted by a factor of 3, and 15 μl were transferred to 96-well microtiter plates (dark, clear bottom, non-binding surface) containing 15 μl of assay buffer (from Luminex Kit). Fifteen microlitre of insulin magnetic beads were added. Incubation was performed during 16–18 h at 4 °C under agitation. Wells were washed three times and 30 μl of hormone panel antibodies were added. The samples were incubated 30 min at ambient temperature under agitation. 30 μl of strepdavidin-phycoerythrin were added. Incubation was performed 30 min at ambient temperature under agitation. Wells were washed three times and 80 μl of drive fluid were added. The plate was then read with the MagPix apparatus. Data analysis was performed using Xlfit v 5.0 and GraphPad Prism v 4.0. Nonlinear curve fitting and statistical analysis was done using equation 1: […]
where A is minimum value of y; B is range of y; C is the IC50 value and D is slope factor.

Data set [2] can be described thus: Caco-2 permeation assay. In kind it is in vitro ADME. As to conditions: human, 37 °C, pH 7.4/7.4. From the text:
Caco-2 cells were provided by ATCC and checked for mycoplasma contamination. These cells are not listed by ICLAC as misidentified cell lines (October 3rd, 2014). A total of 0.4 × 10^5 Caco-2 cells (ATCC no. […] The paracellular barrier characteristics of Caco-2 cells monolayer was monitored using (i) measurement of […] and (ii) measurement of the permeability to the non-permeant fluorescent molecule, Lucifer Yellow. Caco-2 cells were trypsinized after 3 days of incubation while they cover 80–90% of the flask and seeded at a density of 5 × 10^5 in 75 cm^2 flasks in complete medium supplemented with 73 nM (∼0.04 μg ml^−1) of the antibacterial puromycin (3′-[α-amino-p-methoxyhydrocinnamamido]-3′-deoxy-N,Ndimethyladenosine dihydrochloride). After 5–6 days, Caco-2 cells reach high cells density (>0.5 × 10^5 cells per cm^2) and are then passage into cell HTS 24-well plates with 0.4 μm polycarbonate membrane inserts. Cells were seeded at 600,000 cells per cm^2 (200,000 cells per insert) and cultivated for 6 days in complete medium with puromycin. Media was replaced every second days. Compound solutions were prepared in HEPES-buffered Ringerŕs (RH) solution (NaCl 150 mM, KCl 5.2 mM, CaCl2 2.2 mM, MgCl2 0.2 mM, NaHCO3 6 mM, Glucose 2.8 mM, HEPES 5 mM, water for injection), pH=7.4 at a final concentration of 1 or 10 μM for tested drugs. For A→B transport experiment, 0.2 ml of the compound solution was placed on the apical side of the cells and samples were taken from the basolateral compartment. For B→A transport experiment 0.8 ml of the solution was placed on the basolateral side of the cells and samples were taken from apical side. Transport Studies were done in Transwell polycarbonate: HTS 24-well plate inserts (surface area: 0.33 cm^2–0.4 μm pore size). Cells were equilibrated for 10 min in transport buffer prior to the transport experiment, and then incubations with compounds were performed at 37 °C under agitation. After 1 h aliquots were taken from each compartment and sampled in 96-well plates with glass insert. Permeation and the % of recovery are calculated using the formulas below: […]
On the technique in general: Caco-2 monolayers are a common model of the intestinal barrier.

SMILES strings stand for the structures.

As for `O=C(C[C@@H](Cc1ccc2ccccc2c1)n1cc(CNC(=O)c2ccc(F)cc2)nn1)NO` [Compound 1], the IC50 (commonly the midpoint of a concentration-inhibition curve) in data set [1] came to 60 nM. For the same molecule, the Papp A→B (in general, the apparent permeability from the apical to the basolateral side of a cell layer) at 1 h, 1 μM in data set [2] (Caco-2, A→B, 1 μM) amounted to 3.3 ×10⁻⁶ cm/s. For the same molecule, the Papp A→B at 1 h, 10 μM in data set [2] (Caco-2, A→B, 10 μM) is 2.4 ×10⁻⁶ cm/s. The Papp B→A (commonly how fast a substance crosses the layer from the basolateral side) at 1 h, 1 μM in data set [2] (Caco-2, B→A, 1 μM) turned out to be 19 ×10⁻⁶ cm/s. Further, in data set [2] (Caco-2, B→A, 10 μM), the Papp B→A at 1 h, 10 μM worked out at 17 ×10⁻⁶ cm/s.
